Experimental data from ChEMBL document CHEMBL6178013, “Ferroptosis of Cancer Cells via Tubulin Degradation and Mitochondrial Dysfunction: A Novel Mechanism of Anticancer Effect for Small-Molecule Anion Transporters” (J Med Chem, 2025).
Activity calls are given as the source filed them. The rule behind the calls is not given here.

Assays:
[1] = target: Chloride; experiment: Binding affinity to chloride anions assessed as anionophoric activity in egg-yolk L-alpha-phosphatidylcholine liposome model measured per lipid by pyranine-based fluorescent assay
[2] = test system: Chloride; experiment: Binding affinity to chloride anions assessed as fold increase in anionophoric activity in egg-yolk L-alpha-phosphatidylcholine liposome model measured per lipid by pyranine-based fluorescent assay relative to m-Bimbe
[3] = test system: Liposome; experiment: Disruption of egg-yolk L-alpha-phosphatidylcholine liposome model membrane assessed as calcein leakage by fluorescence based assay; type: subcellular
[4] = test system: Chloride; experiment: Binding affinity to chloride anions assessed as chloride efflux in egg-yolk L-alpha-phosphatidylcholine liposome model harboring intravesicular LiCl/extravesicular NaNO3
[5] = test system: Chloride; experiment: Binding affinity to chloride anions assessed as chloride efflux in egg-yolk L-alpha-phosphatidylcholine liposome model harboring intravesicular CsCl/extravesicular NaNO3
[6] = test system: Chloride; experiment: Binding affinity to chloride anions in human HeLa cells assessed as increase in chloride influx at 1 uM measured after 15 mins by inverted fluorescence microscopy; type: cell-based
[7] = test system: A549; experiment: Cytotoxicity against human A549 cells incubated for 48 hrs by MTT assay; type: functional, cell-based; details: A549, 48 h
[8] = test system: HeLa; experiment: Cytotoxicity against human HeLa cells assessed as decrease in ratio of green to red fluorescence at 0.1 to 1 uM incubated for 24 hrs by calcein-AM/7-AAD staining based analysis; type: functional, cell-based; details: dose 0.1-1 µM
[9] = test system: HeLa; experiment: Cytotoxicity against human HeLa cells assessed as decrease in cell viability cultured in chloride-free extracellular medium at 0.05 to 5 uM incubated for 12 hrs; type: functional, cell-based; details: dose 0.05-5 µM
[10] = test system: HeLa; experiment: Effect on ferroptosis pathway in human HeLa cells at 10 uM incubated for 48 hrs by KEGG analysis; type: functional, cell-based
[11] = test system: HeLa; experiment: Effect on p53 pathway in human HeLa cells at 10 uM incubated for 48 hrs by KEGG analysis; type: functional, cell-based
[12] = test system: HeLa; experiment: Cytotoxicity against human HeLa cells assessed as decrease in cell viability at 0.01 to 10 uM pretreated with DFO followed by compound addition by MTT assay; type: functional, cell-based; details: dose 0.01-10 µM
[13] = test system: HeLa; experiment: Cytotoxicity against human HeLa cells assessed as decrease in cell viability at 0.01 to 10 uM pretreated with Fer-1 followed by compound addition by MTT assay; type: functional, cell-based; details: dose 0.01-10 µM
[14] = target: Tubulin alpha (Homo sapiens) (UniProt P0DPH7+P68366+Q71U36+P68363+Q9BQE3+Q6PEY2+A6NHL2+Q9NY65); experiment: Induction of alpha-tubulin degradation in human HeLa cells incubated for 48 hrs by immunoblotting analysis; type: cell-based; details: dose 0.1-1 µM
[15] = test system: HeLa; experiment: Induction of beta III-tubulin degradation in human HeLa cells incubated for 48 hrs by immunoblotting analysis; type: cell-based; details: dose 0.1-1 µM
[16] = test system: HeLa; experiment: Induction of beta III-tubulin degradation in human HeLa cells up to 10 uM preincubated with MG132 followed by compound addition measured after 24 hrs by immunoblotting analysis; type: cell-based
[17] = test system: HeLa; experiment: Induction of lipid peroxidation in human HeLa cells assessed as increase in ROS generation incubated for 24 hrs by flow cytometry; type: functional, cell-based; details: dose 0.1-1 µM
[18] = test system: HeLa; experiment: Induction of ferroptosis in human HeLa cells assessed as increase in Bax level at 0.1 to 1 uM incubated for 24 hrs by immunoblotting analysis; type: functional, cell-based; details: dose 0.1-1 µM
[19] = test system: HeLa; experiment: Induction of ferroptosis in human HeLa cells assessed as increase in Bad level at 0.1 to 1 uM incubated for 24 hrs by immunoblotting analysis; type: functional, cell-based; details: dose 0.1-1 µM
[20] = test system: HeLa; experiment: Induction of ferroptosis in human HeLa cells assessed as increase in caspase-3 activation at 0.1 to 1 uM incubated for 24 hrs by immunoblotting analysis; type: functional, cell-based; details: dose 0.1-1 µM
[21] = test system: HeLa; experiment: Induction of ferroptosis in human HeLa cells assessed as decrease in Bcl-2 level at 0.1 to 1 uM incubated for 24 hrs by immunoblotting analysis; type: functional, cell-based; details: dose 0.1-1 µM
[22] = test system: HeLa; experiment: Induction of cell cycle arrest in human HeLa cells assessed as accumulation of cells at S phase at 0.1 uM incubated for 24 hrs by PI staining based flow cytometry relative to control; type: functional
[23] = MRT (0 to infinity) in male CD-1 mouse at 1 mg/kg, iv measured for 0.083 to 48 hrs by HPLC/MS/MS analysis; type: ADME, organism-based; details: in vivo, time 0.083-48 hrs
[24] = Tmax in male CD-1 mouse at 1 mg/kg, iv measured for 0.083 to 48 hrs by HPLC/MS/MS analysis; type: ADME, organism-based; details: in vivo, time 0.083-48 hrs
[25] = Cmax in male CD-1 mouse at 1 mg/kg, iv measured for 0.083 to 48 hrs by HPLC/MS/MS analysis; type: ADME, organism-based; details: in vivo, time 0.083-48 hrs
[26] = AUC (0 to t) in male CD-1 mouse at 1 mg/kg, ip measured for 0.083 to 48 hrs by HPLC/MS/MS analysis; type: ADME, organism-based; details: in vivo, time 0.083-48 hrs
[27] = AUC (0 to infinity) in male CD-1 mouse at 1 mg/kg, ip measured for 0.083 to 48 hrs by HPLC/MS/MS analysis; type: ADME, organism-based; details: in vivo, time 0.083-48 hrs
[28] = MRT (0 to t) in male CD-1 mouse at 1 mg/kg, ip measured for 0.083 to 48 hrs by HPLC/MS/MS analysis; type: ADME, organism-based; details: in vivo, time 0.083-48 hrs
[29] = Half life in male CD-1 mouse at 1 mg/kg, ip measured for 0.083 to 48 hrs by HPLC/MS/MS analysis; type: ADME, organism-based; details: in vivo, time 0.083-48 hrs
[30] = Tmax in male CD-1 mouse at 1 mg/kg, ip measured for 0.083 to 48 hrs by HPLC/MS/MS analysis; type: ADME, organism-based; details: in vivo, time 0.083-48 hrs
[31] = test system: HeLa; experiment: Antitumor activity against human HeLa cells xenografted in male Balb/C nude mouse assessed as average tumor size at 10 mg/kg, ip administered on every 2 days measured after 18 days (reference value: 1995.1 mm3); type: functional; details: time 18 day
[32] = Toxicity in male Balb/C nude mouse xenografted with human HeLa cells assessed as body weight change at 20 mg/kg, ip administered on every 2 days measured after 18 days; type: organism-based; details: in vivo, 432 h, time 18 day
[33] = test system: HeLa; experiment: Antitumor activity against human HeLa cells xenografted in male Balb/C nude mouse assessed as nuclear fragmentation at 10 to 20 mg/kg, ip administered on every 2 days measured after 18 days by H and E staining based analysis; type: functional, organism-based; details: dose 10-20 mg/kg, time 18.0 day
[34] = test system: HeLa; experiment: In vivo induction of ferroptosis in human HeLa cells xenografted in male Balb/C nude mouse assessed as increase in cleaved PARP level administered intraperitoneally on every 2 days measured after 18 days by immunoblotting analysis; type: functional, organism-based; details: dose 10-20 mg/kg, route ip, time 18.0 day
[35] = Toxicity in male Balb/C nude mouse xenografted with human HeLa cells assessed as abnormalities in spleen at 10 to 20 mg/kg, ip administered on every 2 days measured after 18 days by H and E staining based analysis; type: organism-based; details: in vivo, 432 h, dose 10-20 mg/kg, time 18 day
[36] = Drug concentration in plasma of C57BL/6 mouse at 5 mg/kg, iv measured after 4 hrs by HPLC/MS/MS analysis; type: ADME, organism-based
[37] = Toxicity in male Balb/C nude mouse xenografted with human HeLa cells assessed as abnormalities in brain at 10 to 20 mg/kg, ip administered on every 2 days measured after 18 days by H and E staining based analysis; type: organism-based; details: in vivo, 432 h, dose 10-20 mg/kg, time 18 day

## Fc1cc(-c2nc3c(C(F)(F)F)cc(C(F)(F)F)cc3[nH]2)cc(-c2nc3c(C(F)(F)F)cc(C(F)(F)F)cc3[nH]2)c1
[1]
  EC50: 4.16 10^-2mol%
[2]
  fold change (FC): 2.32 10^2No_unit
[3]
  Activity: inactive
[4]
  Activity: Active
[5]
  Activity: Active
[6]
  Activity: inactive
[7]
  IC50: 1.68 µM
[8]
  Activity: Active
[9]
  Activity: inactive
[10]
  Activity: Active
[11]
  Activity: Active
[12]
  Activity: inactive
[13]
  Activity: inactive
[14]
  Activity: Dose-dependent-effect
[15]
  Activity: Dose-dependent-effect
[16]
  Activity: inactive
[17]
  Activity: Dose-dependent-effect
[18]
  Activity: Active
[19]
  Activity: Active
[20]
  Activity: Active
[21]
  Activity: Active
[22]
  Activity: 22%
[23]
  MRT inf: 3.14 h
[24]
  Tmax: 4.8 min
[25]
  Cmax: 22700 ng/mL
[26]
  AUC(0-t): 3850 ng·h/mL
[27]
  AUC(0-inf): 4610 ng·h/mL
[28]
  MRT last: 24.9 h
[29]
  half-life: 19.9 h
[30]
  Tmax: 3.5 h
[31]
  Activity: 850.9 mm3
[32]
  Activity: Non-toxic
[33]
  Activity: Active
[34]
  Activity: Dose-dependent-effect
[35]
  Activity: Non-toxic
[36]
  concentration at 4 h: 99.2 µM
[37]
  Activity: Non-toxic
